pKd: −log10 of the molar value.
Assays:
human α-thrombin = molecular target: T1, human α-thrombin (Homo sapiens, UniProt P00734); details: affinity label; cited from earlier work
T1 construct: screened against immobilized human α-thrombin; purchased Sigma Chemical Co

L-selectin = molecular target: T2, L-selectin (Homo sapiens, UniProt P14151); details: cited from earlier work
T2 sequence (P14151 39-372): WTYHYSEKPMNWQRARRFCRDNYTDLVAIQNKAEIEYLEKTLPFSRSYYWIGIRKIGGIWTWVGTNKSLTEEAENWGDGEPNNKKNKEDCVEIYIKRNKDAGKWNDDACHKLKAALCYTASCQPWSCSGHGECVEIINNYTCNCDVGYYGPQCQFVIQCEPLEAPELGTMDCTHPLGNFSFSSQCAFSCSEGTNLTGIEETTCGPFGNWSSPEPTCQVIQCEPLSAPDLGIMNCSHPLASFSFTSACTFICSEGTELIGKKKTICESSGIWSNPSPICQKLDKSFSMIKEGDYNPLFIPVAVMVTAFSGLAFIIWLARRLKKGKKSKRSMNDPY

cholera toxin B subunit [1] = molecular target: T3, cholera toxin B subunit (Vibrio cholerae serotype O1, UniProt P01556); type: binding
T3 sequence (P01556 22-124 limits assumed): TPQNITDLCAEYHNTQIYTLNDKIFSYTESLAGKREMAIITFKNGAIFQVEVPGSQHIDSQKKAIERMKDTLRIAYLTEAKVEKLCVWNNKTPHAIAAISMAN

cholera toxin B subunit [2] = molecular target: T3, cholera toxin B subunit; details: cited from earlier work

fPR-chloromethyl ketone
pKd (human α-thrombin): ~7.30

O=P(O)(O)O[C@H]1[C@H](OP(=O)(O)O)[C@@H](OP(=O)(O)O)[C@H](OP(=O)(O)O)[C@@H](OP(=O)(O)O)[C@H]1OP(=O)(O)O [phytic acid]
pKd (L-selectin): 6.00

CC(=O)NC1C(O)CC(OCCOC2OC(CO)C(O)C(OC3OC(CO)C(O)C(O)C3O)C2NC(C)=O)(C(=O)O)OC1C(O)C(O)CO (stereo not drawn) [compound 8, βGal(1-3)βGalNAc(1-)-OCH2CH2O-(-2)αNeu5Ac]
break through time (cholera toxin B subunit [1]): about 11 min

CC(=O)N[C@H]1[C@H](O[C@@H]2[C@H](O[C@]3(C(=O)O)C[C@H](O)[C@@H](NC(C)=O)[C@H]([C@H](O)[C@H](O)CO)O3)[C@@H](O)[C@H](O[C@H]3[C@H](O)[C@@H](O)[C@H](O)O[C@@H]3CO)O[C@@H]2CO)O[C@H](CO)[C@H](O)[C@@H]1O[C@@H]1O[C@H](CO)[C@H](O)[C@H](O)[C@H]1O [compound 7, GM1 oligosaccharide]
break through volume (cholera toxin B subunit [1]): ~300 µL
pKd (cholera toxin B subunit [2]): ~7.00

COC(=O)CCCCCCCCOC1OC(COC2OC(CO)C(O)C(O)C2O)C(O)C(OC2OC(CO)C(O)C(O)C2O)C1O (stereo not drawn) [compound 3, αMan(1-3)[αMan(1-6)]βMan-OGr]
break through (in words) (cholera toxin B subunit [1]): broke through in the void volume
